# Reference: patent US20160038519A1, “ADMINISTRATION OF KARENITECIN FOR THE TREATMENT OF ADVANCED OVARIAN CANCER, INCLUDING CHEMOTHERAPY-RESISTANT AND/OR THE MUCINOUS ADENOCARCINOMA SUB-TYPES” (BioNumerik Pharmaceuticals, Inc., priority 2014, published 2016)
# Where two headings read alike, the source gives them in different places.
# Tested on: stage III/IV advanced epithelial ovarian cancer resistant or refractory to platinum- and taxane-based regimens
# Conditions: for CA-125 marker level, low: after reduction; for CA-125 marker level, high: before reduction
# Protocol: Such Phase III clinical trial is sometimes referred to herein as the “Karenitecin Phase III Trial”.
# The Primary Endpoint of the disclosed Karenitecin Phase III Trial was Progression Free Survival (“PFS”); which was defined as the time period from the date of randomization to the date of first radiographically-documented Progressive Disease (“PD”) or date of death due to any cause, taking the event date that occurs first. The date of PD was determined by radiographical objective disease (RECIST) measurement. The Secondary Endpoints of the disclosed Karenitecin Phase III Trial included: (i) Overall Survival (hereinafter “OS”), defined as the time from the date of randomization to the date of death due to any cause; (ii) Incidence of anemia, defined as the proportion of subjects who experience ≧grade 3 anemia based on National Cancer Institute Common Terminology Criteria for Adverse Events (NCI-CTCAE) criteria at any time post-baseline after receiving study treatment; (iii) Incidence of neutropenia (including febrile neutropenia), defined as the proportion of subjects who experience ≧grade 3 neutropenia based on NCI-CTCAE criteria at any time post-baseline after receiving study treatment; and (iv) Incidence of thrombocytopenia, defined as the proportion of subjects who experience ≧grade 3 thrombocytopenia based on NCI-CTCAE criteria at any time post-baseline after receiving study treatment.
# Approximately 80 study centers participated in this clinical study. The primary endpoint was Progression Free Survival (PFS); defined as the time period from the date of randomization to the date of first radiographically documented progressive disease or disease progression (“PD”) or date of death due to any cause, taking the event date that occurs first.
# The primary endpoint was Progression Free Survival (PFS); defined as the time period from the date of randomization to the date of first radiographically documented progressive disease (PD) or date of death due to any cause, taking the event date that occurs first. The date of PD was determined by radiographically objective disease (RECIST) measurement.
# • Overall Survival (OS), defined as the time from the date of randomization to the date of death due to any cause. • Incidence of anemia, defined as the proportion of subjects who experience ≧grade 3 anemia based on National Cancer Institute Common Terminology Criteria for Adverse Events (NCI-CTCAE) criteria at any time post-baseline after receiving study treatment. • Incidence of neutropenia (including febrile neutropenia), defined as the proportion of subjects who experience ≧grade 3 neutropenia based on NCI-CTCAE criteria at any time post-baseline after receiving study treatment. • Incidence of thrombocytopenia, defined as the proportion of subjects who experience ≧grade 3 thrombocytopenia based on NCI-CTCAE criteria at any time post-baseline after receiving study treatment.
# During this period, subjects received either Karenitecin (1.0 mg/m^2/day administered as a 60-minute intravenous infusion) or Topotecan (1.5 mg/m^2/day administered as a 30-minute intravenous infusion) daily for 5 consecutive days, every 21 days (one treatment cycle=21 days).
# [1] = Adenocarcinoma (grade ≧2) not otherwise specified, P-value=0.3700
# [2] = ECOG Performance Status 0, P-value=0.0249
# [3] = ECOG Performance Status 2, P-value=0.7481
# [4] = FIGO Stage IIIB, P-value=0.6225
# [5] = FIGO Stage IV, first 254 PFS events, P-value=0.0260
# [6] = Histological Stage: G1-well differentiated, P-value=0.8561
# [7] = Histological Stage: G2-moderately differentiated, P-value=0.2982
# [8] = Histopathology class: serous adenocarcinoma, P-value=0.2829
# [9] = Mucinous adenocarcinoma subtype
# [10] = Ovary as primary site of disease, P-value=0.2606
# [11] = overall trial population, P-value=0.261
structure (smiles),measurement,setting,value
"CC[C@@]1(O)C(=O)OCc2c1cc1n(c2=O)Cc2c-1nc1ccccc1c2CC[Si](C)(C)C [Karenitecin, (4S)-4-ethyl-4-hydroxy-11-[2-(trimethylsilyl)ethyl]-1H-pyrano[3′:4′:6,7]indolizino[1,2-b]quinoline-3,14(4H,12H)-dione]",Overall survival hazard ratio,"Adenocarcinoma (grade ≧2) not otherwise specified, P-value 0.7893",0.898
same,Median PFS advantage in favor of Karenitecin,[1],2.7 month
same,PFS Hazard Ratio,[1],0.684
same,PFS Hazard Ratio,"Best response SD after 6 cycles in a first-line setting, P-value=0.9908",0.992
same,Median PFS advantage in favor of Karenitecin,"Best response stable disease (SD) after 6 cycles in a first-line setting, P-value=0.9908",3 month
same,Median PFS advantage in favor of Karenitecin,[2],3.9 month
same,PFS Hazard Ratio,[2],0.662
same,Median PFS advantage in favor of Karenitecin,[3],1.5 month
same,PFS Hazard Ratio,[3],0.896
same,Median PFS advantage in favor of Karenitecin,[4],4.2 month
same,PFS Hazard Ratio,[4],0.722
same,Overall survival hazard ratio,"FIGO Stage IV, P-value 0.4516",0.892
same,Median PFS advantage in favor of Karenitecin,"FIGO Stage IV, P-value=0.0556",2.7 month
same,PFS Hazard Ratio,"FIGO Stage IV, P-value=0.0556",0.741
same,Median PFS advantage in favor of Karenitecin,[5],2.8 month
same,PFS Hazard Ratio,[5],0.669
same,Overall survival hazard ratio,"Histological Stage: G1-well differentiated, P-value 0.9612",0.9674
same,Median PFS advantage in favor of Karenitecin,[6],1.7 week
same,PFS Hazard Ratio,[6],0.904
same,Median PFS advantage in favor of Karenitecin,[7],2.5 month
same,PFS Hazard Ratio,[7],0.835
same,Overall survival hazard ratio,"Histopathology Class: Undifferentiated carcinoma, P-value 0.6426",0.701
same,Median PFS advantage in favor of Karenitecin (as compared with Topotecan),Histopathology class: Mucinous adenocarcinoma,2 month
same,Median PFS advantage in favor of Karenitecin,[8],1.6 month
same,PFS Hazard Ratio,[8],0.873
same,Median PFS,[9],approximately 17.8 weeks
same,"Overall survival (OS), third quartile",[9],35 months
same,Overall survival hazard ratio (Karenitecin vs Topotecan),"Mucinous adenocarcinoma subtype, P-value 0.7321",0.841
same,Median PFS advantage in favor of Karenitecin,[10],6.5 week
same,PFS Hazard Ratio,[10],0.885
same,"CA-125 marker level, low",another patient,24 U/ML
same,"CA-125 marker level, high",another patient,237 U/ML
same,Reduction of grade 4 neutropenia in comparison to the Topotecan arm,"female, human, in vivo",38.2%
same,Reduction of number of grade 3 or 4 anemia events in comparison to the Topotecan arm,"female, human, in vivo",27.3%
same,Reduction of number of grade 3 or 4 thrombocytopenia events in comparison to the Topotecan arm,"female, human, in vivo",37.4%
same,Safety concerns noted by the independent DSMB,in vivo,no safety concerns
same,"CA-125 marker level, high",one patient,2072 U/ML
same,Median PFS,"overall trial population, IRC-determined",approximately 24.3 weeks
same,Median PFS advantage in favor of Karenitecin (as compared with Topotecan),[11],greater than 6 week
same,PFS Hazard Ratio (Karenitecin vs Topotecan),[11],0.885
same,Median PFS,refractory or resistant and/or mucinous subpopulation,approximately 26.9 weeks
same,PFS Hazard Ratio (Karenitecin vs Topotecan),"refractory or resistant and/or mucinous subpopulation, first 254 subjects, P-value=0.0849",0.770
same,Median PFS in favor of Karenitecin (as compared with Topotecan),"refractory or resistant to platinum/taxane and/or mucinous sub-type subpopulation, first 254 subjects, P-value=0.0849",approximately 8.2 weeks
same,PFS Hazard Ratio,"resistant subject sub-population, P-value=0.144",0.822
same,"CA-125 marker level, low",same patient,167 U/ML
